# In patent US20050153989A1, “Pyrrolopyrimidine derivatives and analogs and their use in the treatment and prevention of diseases” (Ambit Biosciences Corporation, priority 2004, published 2005):
# Target: T1, EGFR (Homo sapiens, UniProt P00533)
# Experiment: Binding constant (Kd) measurement, T7 phage-displayed kinase competition binding, wildtype EGFR
# Parameters: made in house
# Conditions: read-out: Kd for EGFR (DKIN) Binding
# Text: Methods for measuring binding affinities for interactions between small molecules and kinases including FLT3, c-KIT, ABL(T334I) [a.k.a. […] The components of the assays include human kinases expressed as fusions to T7 bacteriophage particles and immobilized ligands that bind to the ATP site of the kinases. […] If the test compound binds the kinase it competes with the immobilized ligand and prevents binding to the solid support. […] The results are read out by quantitating the amount of fusion protein bound to the solid support, which is accomplished by either traditional phage plaque assays or by quantitative PCR (qPCR) using the phage genome as a template.
# The term “ND” represents non-determined values.
# To measure the Kd values, the T7 phage displaying human EGFR were incubated with an […] affinity matrix in the presence of various concentrations of a soluble (non-immobilized) compounds provided herein, as described in detail herein.
# T1 sequence (P00533 25-1210): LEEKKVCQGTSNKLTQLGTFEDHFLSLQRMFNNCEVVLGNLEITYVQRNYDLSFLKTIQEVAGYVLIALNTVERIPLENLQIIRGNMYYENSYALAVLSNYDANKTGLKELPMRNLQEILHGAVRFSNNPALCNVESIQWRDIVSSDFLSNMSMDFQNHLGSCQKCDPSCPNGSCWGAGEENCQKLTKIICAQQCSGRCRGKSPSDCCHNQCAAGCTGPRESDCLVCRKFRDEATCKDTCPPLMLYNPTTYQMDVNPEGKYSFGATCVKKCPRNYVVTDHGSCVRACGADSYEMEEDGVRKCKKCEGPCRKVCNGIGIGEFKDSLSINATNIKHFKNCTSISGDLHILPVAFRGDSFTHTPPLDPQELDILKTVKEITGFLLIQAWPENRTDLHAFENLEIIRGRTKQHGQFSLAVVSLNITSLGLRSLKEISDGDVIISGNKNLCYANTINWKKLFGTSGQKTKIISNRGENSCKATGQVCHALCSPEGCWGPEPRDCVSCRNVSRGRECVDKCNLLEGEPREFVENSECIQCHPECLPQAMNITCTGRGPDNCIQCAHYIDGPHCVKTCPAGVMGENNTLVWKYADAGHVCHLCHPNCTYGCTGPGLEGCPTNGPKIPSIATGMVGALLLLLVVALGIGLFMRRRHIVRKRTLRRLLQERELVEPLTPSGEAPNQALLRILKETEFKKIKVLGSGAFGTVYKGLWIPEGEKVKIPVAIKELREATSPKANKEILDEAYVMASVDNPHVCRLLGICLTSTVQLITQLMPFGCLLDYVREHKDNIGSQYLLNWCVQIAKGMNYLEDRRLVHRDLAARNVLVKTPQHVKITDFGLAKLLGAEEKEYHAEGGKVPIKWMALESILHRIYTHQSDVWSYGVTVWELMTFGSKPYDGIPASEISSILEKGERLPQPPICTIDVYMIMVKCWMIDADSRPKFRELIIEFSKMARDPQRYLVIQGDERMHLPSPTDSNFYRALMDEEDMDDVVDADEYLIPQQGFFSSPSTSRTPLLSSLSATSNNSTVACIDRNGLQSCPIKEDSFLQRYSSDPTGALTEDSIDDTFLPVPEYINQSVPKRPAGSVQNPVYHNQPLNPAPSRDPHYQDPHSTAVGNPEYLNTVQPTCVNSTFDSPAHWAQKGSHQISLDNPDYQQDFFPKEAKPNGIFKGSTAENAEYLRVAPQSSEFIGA
row,Compound,Kd [nM]
1,COc1cccc(-c2cc3c(NCc4cccc(Cl)c4)ncnc3[nH]2)c1 [Compound I11],< 100
2,"C[C@@H](Nc1ncnc2oc(-c3ccccc3)c(-c3ccccc3)c12)c1ccccc1 [Compound H1, (5,6-Diphenyl-furo[2,3-d]pyrimidin-4-yl)-(1-phenyl-ethyl)-amine]",< 100
3,COC(=O)c1cccc(Nc2ncnc3[nH]c(-c4cccc(OC)c4)cc23)c1 [Compound S15],> 10000
4,COc1cccc(-c2cc3c(NCc4ccc(Cl)cc4)ncnc3[nH]2)c1 [Compound I16],< 100
5,COc1cccc(-c2cc3c(Nc4cccc(F)c4)ncnc3[nH]2)c1 [Compound S22],< 100
6,COc1ccc(-c2cc3c(Nc4cccc(C)c4)ncnc3[nH]2)cc1 [Compound S10],< 100
7,COc1cccc(-c2cc3c(Nc4ccc(F)cc4)ncnc3[nH]2)c1 [Compound S24],< 100
8,COc1cccc(Nc2ncnc3[nH]c(-c4cccc(OC)c4)cc23)c1 [Compound S21],< 100
9,COc1cccc(CNc2ncnc3[nH]c(-c4ccc(O)cc4)cc23)c1 [Compound I19],100 to 1000
10,COc1cccc(-c2cc3c(Nc4ccccc4)ncnc3[nH]2)c1 [Compound S27],< 100
11,CC(Nc1ncnc2oc(-c3ccccc3)c(-c3ccccc3)c12)c1ccccc1 (centres unmarked) [Compound H3],< 100
12,Oc1ccc(-c2cc3c(Nc4cccc(O)c4)ncnc3[nH]2)cc1 [Compound S33],< 100
13,COc1cccc(-c2cc3c(Nc4cc(C)cc(C)c4)ncnc3[nH]2)c1 [Compound S13],< 100
14,COC(=O)c1cccc(Nc2ncnc3[nH]c(-c4ccc(OC)cc4)cc23)c1 [Compound S4],< 100
15,O=C(O)c1cccc(Nc2ncnc3[nH]c(-c4ccc(O)cc4)cc23)c1 [Compound S31],1000 to 10000
16,COc1ccc(-c2nc3c(NCc4cccc(C)c4)ncnc3[nH]2)cc1 [Compound I4],100 to 1000
17,COc1ccc(Cn2c(-c3ccc(OC)cc3)cc3c(Nc4cc(C)cc(C)c4)ncnc32)cc1 [Compound K6],1000 to 10000
18,COc1ccc(Cn2c(-c3ccc(OC)cc3)cc3c(NCc4cccc(Cl)c4)ncnc32)cc1 [Compound M20],1000 to 10000
19,Oc1ccc(-c2cc3c(NCCc4ccccc4)ncnc3[nH]2)cc1 [Compound I22],< 100
20,Oc1ccc(-c2cc3c(Nc4ccc(F)cc4)ncnc3[nH]2)cc1 [Compound S37],< 100
21,COc1ccc(-c2cc3c(NC(C)c4ccccc4)ncnc3[nH]2)cc1 (centres unmarked) [Compound M24],100 to 1000
22,COC(=O)c1cccc(Nc2ncnc3[nH]c(-c4ccc(O)cc4)cc23)c1 [Compound S32],100 to 1000
23,COc1ccc(C(C)Nc2ncnc3[nH]c(-c4cccc(OC)c4)cc23)cc1 (centres unmarked) [Compound I17],1000 to 10000
24,COc1cccc(CNc2ncnc3nc[nH]c23)c1 [Compound G15],> 10000
25,COc1cccc(-c2cc3c(Nc4ccc(C)cc4)ncnc3[nH]2)c1 [Compound S28],< 100
26,COC(=O)C(Nc1ncnc2[nH]c(-c3ccc(OC)cc3)cc12)c1ccccc1 (centres unmarked) [Compound I7],100 to 1000

# Results, then the compound that gave them:
row,Kd [nM],Compound
1,1000 to 10000,Clc1cc(Cl)cc(Nc2ncnc3[nH]c(-c4ccc(Br)cc4)cc23)c1 [Compound S38]
2,1000 to 10000,COc1ccc(Cn2c(-c3ccc(OC)cc3)cc3c(Nc4cccc(O)c4)ncnc32)cc1 [Compound K7]
3,< 100,C[C@H](Nc1ncnc2c1[nH]c1ccccc12)c1ccccc1 [Compound C2]
4,1000 to 10000,Clc1ccc(Nc2ncnc3[nH]cnc23)cc1Cl [Compound G3]
5,< 100,Oc1ccc(-c2cc3c(Nc4cccc(F)c4)ncnc3[nH]2)cc1 [Compound S35]
6,< 100,Cc1cccc(CNc2ncnc3[nH]c(-c4ccc(O)cc4)cc23)c1 [Compound I20]
7,100 to 1000,COc1ccc(-c2cc3c(Nc4cc(Cl)cc(Cl)c4)ncnc3[nH]2)cc1 [Compound S2]
8,< 100,Cc1cc(C)cc(Nc2ncnc3[nH]c(-c4ccc(O)cc4)cc23)c1 [Compound S30]
9,100 to 1000,COc1ccc(-c2cc3c(NCCc4ccccc4)ncnc3[nH]2)cc1 [Compound I8]
10,1000 to 10000,COc1ccc(C(C)Nc2ncnc3[nH]c(-c4ccc(O)cc4)cc23)cc1 (centres unmarked) [Compound I23]
11,< 100,COc1ccc(-c2cc3c(N[C@H](C)c4ccccc4)ncnc3[nH]2)cc1 [Compound M21]
12,1000 to 10000,Cn1c(-c2ccc(O)cc2)cc2c(Nc3cccc(Br)c3)ncnc21 [Compound Q7]
13,100 to 1000,Fc1ccc(Nc2ncnc3c2[nH]c2ccccc23)cc1Cl [Compound C14]
14,> 10000,COc1ccc(-c2cc3c(N[C@@H](C)c4ccccc4)ncnc3n2C)cc1 [Compound D9]
15,< 100,COc1cccc(-c2cc3c(NCc4ccccc4)ncnc3[nH]2)c1 [Compound I14]
16,< 100,COc1ccc(-c2cc3c(N[C@@H](C)c4ccccc4)ncnc3n2C(C)C)cc1 [Compound D10]
17,< 100,COc1ccc(-c2cc3c(Nc4cccc(C(=O)O)c4)ncnc3[nH]2)cc1 [Compound S3]

row,Kd [nM],Compound
1,100 to 1000,Cc1cc(C)cc(Nc2ncnc3[nH]c(-c4ccc(Br)cc4)cc23)c1 [Compound S39]
2,100 to 1000,COc1cccc(-c2cc3c(NCc4cccc(C)c4)ncnc3[nH]2)c1 [Compound I12]
3,< 100,COc1cccc(-c2cc3c(Nc4ccc(Cl)cc4)ncnc3[nH]2)c1 [Compound S23]
4,< 100,COc1ccc(-c2cc3c(Nc4ccc(Cl)c(C(F)(F)F)c4)ncnc3[nH]2)cc1 [Compound S8]
5,< 100,C[C@H](Nc1ncnc2[nH]c(-c3ccc(Br)cc3)cc12)c1ccccc1 [Compound I24]
6,1000 to 10000,COc1ccc(Cn2c(-c3ccc(OC)cc3)cc3c(Nc4cccc(F)c4)ncnc32)cc1 [Compound K8]
7,< 100,COc1cccc(-c2cc3c(Nc4ccc(Cl)c(Cl)c4)ncnc3[nH]2)c1 [Compound S19]
8,< 100,CC(Nc1ncnc2[nH]c(-c3ccc(O)cc3)cc12)c1ccccc1 (centres unmarked) [Compound I18]
9,< 100,COc1ccc(-c2cc3c(Nc4cccc(C(F)(F)F)c4)ncnc3[nH]2)cc1 [Compound I5]
10,< 100,COc1ccc(-c2cc3c(N[C@H](C)c4ccccc4)nc(N[C@@H](C)c4ccccc4)nc3[nH]2)cc1 [Compound M22]
11,< 100,COc1cccc(-c2cc3c(Nc4cccc(O)c4)ncnc3[nH]2)c1 [Compound S16]
12,< 100,Oc1ccc(-c2cc3c(NCc4ccccc4)ncnc3[nH]2)cc1 [Compound I21]
13,100 to 1000,COc1cccc(Nc2ncnc3[nH]c(-c4ccc(Br)cc4)cc23)c1 [Compound S42]
14,1000 to 10000,C[C@H](Nc1ncnc2[nH]c(-c3ccc(O)cc3)cc12)c1ccccc1 [Compound I9]
15,> 10000,O=C(O)c1cccc(Nc2ncnc3[nH]cnc23)c1 [Compound G6]
16,> 10000,Clc1cccc(Nc2ncnc3[nH]cnc23)c1 [Compound G12]
17,< 100,COc1cccc(Nc2ncnc3[nH]c(-c4ccc(O)cc4)cc23)c1 [Compound S36]

# Target: T1, EGFR
# Experiment: EGFR autophosphorylation (tyrosine 1173) inhibition assay in lung cancer cell line A459
# Assay type: cell-based
# Parameters: 3.6×10^5 A549 cells/well in a 24-well culture plate; endogenous in cells
# Conditions: EGF-induced phosphorylation of tyrosine 1173
# Protocol: (§1) Cells were stimulated by the addition of 5 ng/ml of EGF for five minutes. Cells were then washed with cold phosphate buffered saline (PBS), and incubated for 30 minutes at 4° C. in lysis buffer. […] Total EGFR levels were also measured in the same manner to control for protein level differences.
row,IC50 [nM],Compound
1,1000 to 10000,C[C@H](Nc1ncnc2c1[nH]c1ccccc12)c1ccccc1 [Compound C2]
2,< 100,COc1ccc(-c2cc3c(N[C@@H](C)c4ccccc4)ncnc3n2C(C)C)cc1 [Compound D10]

# Target: T1, EGFR
# Experiment: EGFR autophosphorylation (tyrosine 1173) inhibition assay in A431 cells
# Assay type: cell-based
# Parameters: 4×10^4 A431 cells/well in a 96-well culture plate; endogenous in cells; host or cells: A431
# Conditions: Epidermoid Carcinoma Cell Line A431; EGF-induced phosphorylation of tyrosine 1173
# Protocol: as §1
row,Compound,IC50 [nM]
1,"C[C@@H](Nc1ncnc2oc(-c3ccccc3)c(-c3ccccc3)c12)c1ccccc1 [Compound H1, (5,6-Diphenyl-furo[2,3-d]pyrimidin-4-yl)-(1-phenyl-ethyl)-amine]",100 to 1000
2,COc1ccc(-c2cc3c(Nc4cccc(C)c4)ncnc3[nH]2)cc1 [Compound S10],< 100
3,CC(Nc1ncnc2oc(-c3ccccc3)c(-c3ccccc3)c12)c1ccccc1 (centres unmarked) [Compound H3],100 to 1000

# Second part, the compound after the results:
row,IC50 [nM],Compound
1,100 to 1000,C[C@H](Nc1ncnc2c1[nH]c1ccccc12)c1ccccc1 [Compound C2]
2,100 to 1000,COc1ccc(-c2cc3c(N[C@@H](C)c4ccccc4)ncnc3n2C(C)C)cc1 [Compound D10]
3,100 to 1000,Cc1cc(C)cc(Nc2ncnc3[nH]c(-c4ccc(Br)cc4)cc23)c1 [Compound S39]
